Earlier results, collected in patent publication US8968799B2, “Time delayed release mechanism for energizing composition and method of use” (Rise-N-Shine L.L.C., priority 2006, dated 2015).

Experiments:
[1] = cold, fatigue, sleep deprivation
[2] = particularly as methylcobalamin; healthy men and women

N[C@@H](Cc1ccc(O)cc1)C(=O)O [Tyrosine, 4-hydroxyphenylalanine]
effect on cognitive performance and mood under acute stress [1]: appears to prevent the substantial decline

C/C1=C2/[N-][C@H]([C@H](CC(N)=O)[C@@]2(C)CCC(=O)NC[C@@H](C)OP(=O)([O-])O[C@H]2[C@@H](O)[C@@H](n3cnc4cc(C)c(C)cc43)O[C@@H]2CO)[C@]2(C)N=C(/C(C)=C3N=C(/C=C4N=C1[C@@H](CCC(N)=O)C\4(C)C)[C@@H](CCC(N)=O)[C@]\3(C)CC(N)=O)[C@@H](CCC(N)=O)[C@]2(C)CC(N)=O.[CH3-].[Co+3] [vitamin B12, methylcobalamin]
effect on sleep time, sleep quality and daytime alertness [2]: decrease sleep time yet improve sleep quality and daytime alertness
